According to ChEMBL document CHEMBL1201862, “PubChem BioAssay data set” (2004):
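Five compound concentrations were applied to cells in 96-well plates for 48 hours; endpoints were derived by simple linear interpolation of the resulting dose-response curve. The concentration for 50% growth inhibition is given as GI50.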 Active and inactive are the calls of the source. Rule as the data show it: active = GI50 up to about 1.1 µM and inactive = higher.

Assays:
Assay in all cases: NCI-60 cell line screen, 48 h
DLD-1 = system: DLD-1
DMS-114 = system: DMS-114
HOP-18 = system: HOP-18
KM-20L2 = system: KM-20L2
LXFL 529 = system: LXFL 529
M19-MEL = system: M19-MEL
SNB-78 = system: SNB-78
XF498 = system: XF498
RXF 631 = system: RXF 631

Row | Compound | GI50 (DLD-1) | GI50 (DMS-114) | GI50 (HOP-18) | GI50 (KM-20L2) | GI50 (LXFL 529) | GI50 (M19-MEL) | GI50 (SNB-78) | GI50 (XF498) | GI50 (RXF 631)
1 | Nc1ccccc1C(=O)NC(=O)Nc1ccc(Oc2ncc(Br)cn2)c(Cl)c1 | < 0.01 µM (active) | < 0.01 µM (active) | 13 µM (inactive) | < 0.01 µM (active) | < 0.01 µM (active) | < 0.01 µM (active) | < 0.12 µM (active) | – | –
2 | CC(=O)ON(C(C)=O)C1C(COC(c2ccccc2)(c2ccccc2)c2ccccc2)OC2OC3(CCCC3)OC21 (configuration not stated) | 5.32 µM (inactive) | 5.5 µM (inactive) | 49.3 µM (inactive) | 5.19 µM (inactive) | – | 6.62 µM (inactive) | – | 5.19 µM (inactive) | –
3 | CCOC(C[C@H](O)[C@H]1COC(=S)S1)OCC | – | > 100 µM (inactive) | – | > 100 µM (inactive) | > 100 µM (inactive) | > 100 µM (inactive) | – | > 100 µM (inactive) | –
4 | O=C1OC(CC(=O)c2ccc(Cl)cc2Cl)C(Cl)=C1Cl (configuration not stated) | 22.4 µM (inactive) | 18.4 µM (inactive) | > 100 µM (inactive) | 21.1 µM (inactive) | 17.1 µM (inactive) | 20 µM (inactive) | 33.1 µM (inactive) | 21.3 µM (inactive) | 31.1 µM (inactive)
5 | CN(c1ccccc1)C1C(=O)N(c2ccccc2)C1/C=C/c1ccccc1 (configuration not stated) | > 100 µM (inactive) | – | – | – | > 100 µM (inactive) | > 100 µM (inactive) | > 100 µM (inactive) | – | –
6 | CCOP(=O)(OCC)/C(C#N)=C/c1ccc[nH]1 | > 100 µM (inactive) | > 100 µM (inactive) | > 100 µM (inactive) | > 100 µM (inactive) | > 100 µM (inactive) | > 100 µM (inactive) | > 100 µM (inactive) | – | –
7 | COc1cc2ccnc3c(=C(SC)SC)c(=O)c(c1OC)c23 | 13.9 µM (inactive) | 17.3 µM (inactive) | 13.3 µM (inactive) | 15.7 µM (inactive) | 4.65 µM (inactive) | 16 µM (inactive) | – | – | 14.8 µM (inactive)
8 | O=[N+]([O-])c1cc([N+](=O)[O-])c(/C=C/c2ccc(Cl)c(Cl)c2)cc1/C=C/c1ccc(Cl)c(Cl)c1 | – | 24.5 µM (inactive) | – | 31 µM (inactive) | 23.6 µM (inactive) | 21.4 µM (inactive) | 47.4 µM (inactive) | – | –
9 | Cc1ccc(SC2C(C)(C)N(C(C)C)P2(=O)N(C(C)C)C(C)C)cc1 (configuration not stated) | – | – | > 100 µM (inactive) | 34 µM (inactive) | 21.3 µM (inactive) | 26.7 µM (inactive) | > 68.5 µM (inactive) | – | –
10 | N#Cc1ccc(Sc2ccccc2)cc1C#N | 34 µM (inactive) | – | 50.6 µM (inactive) | 75.3 µM (inactive) | 59.7 µM (inactive) | > 100 µM (inactive) | – | 23.1 µM (inactive) | 30.9 µM (inactive)
11 | COc1ccc2nc3cc(Cl)ccc3c(Sc3ccccc3[N+](=O)[O-])c2c1 | > 100 µM (inactive) | > 100 µM (inactive) | > 100 µM (inactive) | > 100 µM (inactive) | > 100 µM (inactive) | > 100 µM (inactive) | 41.2 µM (inactive) | 29.4 µM (inactive) | 43.9 µM (inactive)
12 | C=C1C(=O)O[C@H]2[C@H]1[C@H](OC(=O)/C(C)=C\C)CC(=C)[C@@H]1[C@H](O)[C@H]3O[C@@]3(C)[C@@]12O [EUPATUNDIN] | > 100 µM (inactive) | > 100 µM (inactive) | > 100 µM (inactive) | > 100 µM (inactive) | > 100 µM (inactive) | > 100 µM (inactive) | > 100 µM (inactive) | > 100 µM (inactive) | > 100 µM (inactive)
13 | COC(=O)c1csnn1 | – | > 100 µM (inactive) | – | > 100 µM (inactive) | > 100 µM (inactive) | > 100 µM (inactive) | – | > 100 µM (inactive) | –
14 | COc1ccc(CC2c3c(cc(OC)c(OC)c3OC)CCN2C)cc1OC (configuration not stated) | > 100 µM (inactive) | – | 51.2 µM (inactive) | > 100 µM (inactive) | > 100 µM (inactive) | – | 60 µM (inactive) | > 100 µM (inactive) | –
15 | Cc1cc(C)c(/C=N/NS(=O)(=O)c2ccccc2)c(C)c1 | 91.8 µM (inactive) | 60.4 µM (inactive) | 59 µM (inactive) | > 100 µM (inactive) | 62.2 µM (inactive) | > 100 µM (inactive) | > 100 µM (inactive) | – | > 100 µM (inactive)
16 | COc1cc(=O)oc(/C=C/CO)c1C | > 100 µM (inactive) | > 100 µM (inactive) | > 100 µM (inactive) | > 100 µM (inactive) | > 100 µM (inactive) | > 100 µM (inactive) | – | > 100 µM (inactive) | > 100 µM (inactive)
17 | CS(=O)(=O)c1cc(=O)c2ccccc2s1 | 1.91 µM (inactive) | 4.82 µM (inactive) | 3.85 µM (inactive) | 11.7 µM (inactive) | 1.63 µM (inactive) | 7.69 µM (inactive) | 4.99 µM (inactive) | 2.14 µM (inactive) | 11 µM (inactive)
18 | CN1C/C(=C\c2ccco2)c2nc(N)nc(-c3ccco3)c2C1 | > 100 µM (inactive) | > 100 µM (inactive) | – | > 100 µM (inactive) | 74.1 µM (inactive) | > 100 µM (inactive) | – | 23.6 µM (inactive) | –
19 | O=S(O)CCCCSSCc1ccccc1CSSCCCCS(=O)O | 24.6 µM (inactive) | 14.9 µM (inactive) | 14.7 µM (inactive) | 61 µM (inactive) | 11.4 µM (inactive) | 4.65 µM (inactive) | – | 12 µM (inactive) | 23.1 µM (inactive)
20 | C=C[C@@]1(C)CCC2(O)C(CCC3C2(C)CCC[C@@]3(C)COC(=O)CC(=O)OC)C1 (some centres not stated) | 17.4 µM (inactive) | – | – | 18.7 µM (inactive) | 17.3 µM (inactive) | – | 26.1 µM (inactive) | 21.6 µM (inactive) | 19.1 µM (inactive)
21 | CCOC(=O)Oc1cc2c(c(OC)c1OC)-c1ccc(OC)c(=O)cc1C(NC(C)=O)CC2 (configuration not stated) | – | 0.0137 µM (active) | – | 0.0416 µM (active) | < 0.0162 µM (active) | < 0.0164 µM (active) | 0.0156 µM (active) | 0.0432 µM (active) | 0.0565 µM (active)
22 | C/C(=N/N)c1sc(-c2nc(C)c(/C(C)=N\N)s2)nc1C | > 67.9 µM (inactive) | > 46.7 µM (inactive) | > 67.1 µM (inactive) | > 100 µM (inactive) | 50.8 µM (inactive) | > 100 µM (inactive) | > 100 µM (inactive) | 38.2 µM (inactive) | –
23 | COc1ccc(C2Oc3cc(OC)c(O)c(C)c3[C@H]2C)cc1 (some centres not stated) | > 100 µM (inactive) | 58.7 µM (inactive) | 19 µM (inactive) | > 100 µM (inactive) | 71.6 µM (inactive) | > 100 µM (inactive) | > 100 µM (inactive) | – | –
24 | N#Cc1ccc(/C=N\N2C(=O)c3ccccc3C2=O)cc1 | > 100 µM (inactive) | > 100 µM (inactive) | > 100 µM (inactive) | > 100 µM (inactive) | > 100 µM (inactive) | > 100 µM (inactive) | > 100 µM (inactive) | > 100 µM (inactive) | –
25 | COc1ccc2c(c1)C(=O)c1ccc(OC)cc1C2=S | 55.5 µM (inactive) | > 100 µM (inactive) | > 100 µM (inactive) | > 100 µM (inactive) | – | > 100 µM (inactive) | 30.7 µM (inactive) | 85.3 µM (inactive) | –
26 | CCc1cccc(C)c1NS(=O)(=O)c1ccccc1 | > 100 µM (inactive) | > 100 µM (inactive) | – | > 100 µM (inactive) | > 100 µM (inactive) | > 100 µM (inactive) | > 100 µM (inactive) | > 100 µM (inactive) | > 100 µM (inactive)
27 | CN(C)CN(C)c1nc(N(C)C)nc(N(C)C)n1 | > 100 µM (inactive) | 90.2 µM (inactive) | > 100 µM (inactive) | > 100 µM (inactive) | 84.7 µM (inactive) | > 100 µM (inactive) | > 100 µM (inactive) | > 100 µM (inactive) | –
28 | N#Cc1nc(Nc2cccc3ccccc23)sc1N | 48.4 µM (inactive) | – | – | 43.2 µM (inactive) | 29.9 µM (inactive) | 28.5 µM (inactive) | 13 µM (inactive) | 20.3 µM (inactive) | –
29 | COc1ccc(C)cc(O)c1=O | 35.1 µM (inactive) | 14 µM (inactive) | 40.9 µM (inactive) | 40.2 µM (inactive) | 16.2 µM (inactive) | 32.3 µM (inactive) | > 100 µM (inactive) | – | –
